± gives the expanded uncertainty stated by the source.
Conditions: 323.15 K; Liquid

Row | Structure (SMILES) | vapor or sublimation pressure [kPa]
1 | COC(C)=O [methyl ethanoate] | 79.21 ± 0.71
2 | O [water] | 12.35 ± 0.17
3 | CC(=O)O [acetic acid] | 7.72 ± 0.28
4 | CO [methanol] | 55.61 ± 0.52

— the NIST ThermoML archive (doi:10.1016/j.fluid.2006.06.005)
